Source: US4189433A, “4-Hydroxy-1,2-benzisothiazoles and their manufacture” (BASF Aktiengesellschaft, priority 1977, dated 1980)

How the values were obtained:
cardiac β1-receptors = molecular target: T1, cardiac β1-receptors (Rattus norvegicus, UniProt P18090); test: β1-sympatholytic action: inhibition of Isoproterenol tachycardia in pithed rats; type: in vivo, rat (Sprague-Dawley; details: Propranolol = 1.00, intravenous
T1 construct: in pithed rats (Sprague-Dawley, Mus rattus; weight 230-280 g); from tissue; host or cells: heart in situ of pithed Sprague-Dawley rats (in vivo)
T1 sequence (P18090 whole entry): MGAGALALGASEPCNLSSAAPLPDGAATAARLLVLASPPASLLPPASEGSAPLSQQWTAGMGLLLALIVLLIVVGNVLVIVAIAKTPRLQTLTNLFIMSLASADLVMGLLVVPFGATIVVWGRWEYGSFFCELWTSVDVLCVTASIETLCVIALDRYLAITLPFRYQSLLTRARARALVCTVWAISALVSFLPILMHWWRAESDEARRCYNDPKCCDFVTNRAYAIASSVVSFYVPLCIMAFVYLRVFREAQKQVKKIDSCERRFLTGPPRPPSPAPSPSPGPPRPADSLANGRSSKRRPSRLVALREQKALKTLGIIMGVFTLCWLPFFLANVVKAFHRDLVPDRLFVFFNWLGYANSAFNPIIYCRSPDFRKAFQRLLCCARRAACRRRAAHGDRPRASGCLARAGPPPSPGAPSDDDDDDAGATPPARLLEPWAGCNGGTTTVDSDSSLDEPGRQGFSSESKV
From the text: (§1) The following are examples of compounds of the general formula III and/or of their acid addition salts with a physiologically safe acid: 4-(2-hydroxy-3-isopropylamino-propoxy)-1,2-benzisothiazole (III), 4-(2-hydroxy-3-tert.-butylaminopropoxy)-1,2-benzisothiazole (IV), 4-[2-hydroxy-3-(3-methylpentyl-3-amino)-propoxy]-1,2-benzisothiazole (VII), 4-[2-hydroxy-3-(2-methyl-butyl-2-amino)-propoxy]-1,2-benzisothiazole (VI), 4-[2-hydroxy-3-(2-methyl-3-but-2-ynylamino)-propoxy]-1,2-benzisothiazole (VIII), 4-(2-hydroxy-3-sec.-butylaminopropoxy-1,2-benzisothiazole (V), 4-[2-hydroxy-3-(1-methoxy-propyl-2-amino)-propoxy]-1,2-benzisothiazole (IX) and 4-[2-hydroxy-3-(pentyl-2-amino)-propoxy]-1,2-benzisothiazole (X).

[1] = molecular target: T2, β2-receptors on the blood vessels (Rattus norvegicus, UniProt P10608); test: β2-sympatholytic action: inhibition of Isoproterenol blood pressure reduction in rats under urethane narcosis; type: in vivo; details: for R.A. (relative activity), β2-sympatholytic action: Propranolol = 1.00; for R.A. (relative activity), β2-sympatholytic action / Q (footnote 6; numerically ED 50 β2 / ED 50 β1): intravenous; for Q (footnote 6; numerically ED 50 β2 / ED 50 β1): cardioselectivity quotient, rats
T2 construct: was tested on rats, weighing 230-280 g, under urethane narcosis; from tissue; host or cells: blood vessels in situ of urethane-anaesthetised rats (in vivo)
T2 sequence (P10608 whole entry): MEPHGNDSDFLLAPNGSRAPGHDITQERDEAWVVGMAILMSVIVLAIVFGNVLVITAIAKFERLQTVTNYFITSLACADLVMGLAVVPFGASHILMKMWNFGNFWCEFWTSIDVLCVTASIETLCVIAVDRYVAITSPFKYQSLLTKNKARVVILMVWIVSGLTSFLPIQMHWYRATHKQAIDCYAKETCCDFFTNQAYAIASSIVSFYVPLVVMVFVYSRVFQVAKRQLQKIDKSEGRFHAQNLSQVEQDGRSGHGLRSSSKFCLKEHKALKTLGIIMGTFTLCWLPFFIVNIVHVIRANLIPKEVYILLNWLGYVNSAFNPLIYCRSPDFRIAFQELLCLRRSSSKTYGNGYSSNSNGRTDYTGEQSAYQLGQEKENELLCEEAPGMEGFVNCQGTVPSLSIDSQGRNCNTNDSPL
From the text: as §1

female Swiss mice = test: in vivo; details: mouse
Procedure: (§2) The acute toxicity was determined on groups of 10 or 20 female Swiss mice weighing 20-26 g, the compounds being administered intraperitoneally.

[2] = Stability to light and to air; type: physicochemical; details: compared to 7-amino-4-hydroxy-1,2-benzisothiazole
in vivo = details: mouse
Procedure: as §2

Row | Compound | R.A. (relative activity), β1-sympatholytic action (cardiac β1-receptors) | R.A. (relative activity), β2-sympatholytic action ([1]; rats under urethane narcosis) | Q (footnote 6; numerically ED 50 β2 / ED 50 β1) [1] | Therapeutic range, relative (female Swiss mice) | reduction of the mean pressure of the carotid artery, average ([1]; Isoproterenol 0.215 μg/kg i.v., rats under urethane narcosis) [%] | stability to light and to air [2] | selectivity ratio (in vivo)
1 | C#CC(C)(C)NCC(O)COc1cccc2sncc12 (stereo not drawn) [VIII, 4-[2-hydroxy-3-(2-methyl-3-but-2-ynylamino)-propoxy]-1,2-benzisothiazole] | 5.35 | 1.98 | 2.50 | 9.11 | – | – | –
2 | CCCC(C)NCC(O)COc1cccc2sncc12 (stereo not drawn) [X, 4-[2-hydroxy-3-(pentyl-2-amino)-propoxy]-1,2-benzisothiazole] | 4.88 | 0.42 | 10.70 | 2.72 | – | – | –
3 | CC(C)NCC(O)c1ccc(O)c(O)c1 (stereo not drawn) [Isoproterenol, reference compound] | – | – | – | – | 30 | – | –
4 | CC(=O)Nc1ccc(OC(C)=O)c2cnsc12 [7-acetamino-4-acetoxy-1,2-benzisothiazole] | – | – | – | – | – | increased stability to light and to air | –
5 | CC(C)NCC(O)COc1cccc2sncc12 (stereo not drawn) [Example III, 4-(2-hydroxy-3-isopropylamino-propoxy)-1,2-benzisothiazole] | 6.47 | 2.71 | 2.21 | 3.72 | – | – | 32700
6 | CC(C)(C)NCC(O)COc1cccc2sncc12 (stereo not drawn) [IV, 4-(2-hydroxy-3-tert.-butylaminopropoxy)-1,2-benzisothiazole] | 7.55 | 2.84 | 2.47 | 10.76 | – | – | 94500
7 | CCC(C)NCC(O)COc1cccc2sncc12 (stereo not drawn) [V, 4-(2-Hydroxy-3-sec.-butylamino-propoxy)-1,2-benzisothiazole] | 8.04 | 1.08 | 6.93 | 7.18 | – | – | –
8 | CCC(C)(C)NCC(O)COc1cccc2sncc12 (stereo not drawn) [VI, 4-[2-hydroxy-3-(2-methyl-butyl-2-amino)-propoxy]-1,2-benzisothiazole] | 6.68 | 1.38 | 4.48 | 8.92 | – | – | –
9 | CCC(C)(CC)NCC(O)COc1cccc2sncc12 (stereo not drawn) [VII, 4-[2-hydroxy-3-(3-methylpentyl-3-amino)-propoxy]-1,2-benzisothiazole] | 3.75 | 0.94 | 3.69 | 4.44 | – | – | –
10 | COCC(C)NCC(O)COc1cccc2sncc12 (stereo not drawn) [IX, 4-[2-hydroxy-3-(1-methoxy-propyl-2-amino)-propoxy]-1,2-benzisothiazole] | 2.48 | 0.26 | 8.90 | 3.11 | – | – | –
